Reference: the Kinase Knowledgebase extract (Sharma et al. 2016)
pIC50: −log10 of the molar value.

What follows are compounds tested against PIK3CA (human) (UniProt P42336) (assay: Cell-Based Assay). Settings: bt20.
Sequence of PIK3CA (human) (P42336 whole entry, looked up): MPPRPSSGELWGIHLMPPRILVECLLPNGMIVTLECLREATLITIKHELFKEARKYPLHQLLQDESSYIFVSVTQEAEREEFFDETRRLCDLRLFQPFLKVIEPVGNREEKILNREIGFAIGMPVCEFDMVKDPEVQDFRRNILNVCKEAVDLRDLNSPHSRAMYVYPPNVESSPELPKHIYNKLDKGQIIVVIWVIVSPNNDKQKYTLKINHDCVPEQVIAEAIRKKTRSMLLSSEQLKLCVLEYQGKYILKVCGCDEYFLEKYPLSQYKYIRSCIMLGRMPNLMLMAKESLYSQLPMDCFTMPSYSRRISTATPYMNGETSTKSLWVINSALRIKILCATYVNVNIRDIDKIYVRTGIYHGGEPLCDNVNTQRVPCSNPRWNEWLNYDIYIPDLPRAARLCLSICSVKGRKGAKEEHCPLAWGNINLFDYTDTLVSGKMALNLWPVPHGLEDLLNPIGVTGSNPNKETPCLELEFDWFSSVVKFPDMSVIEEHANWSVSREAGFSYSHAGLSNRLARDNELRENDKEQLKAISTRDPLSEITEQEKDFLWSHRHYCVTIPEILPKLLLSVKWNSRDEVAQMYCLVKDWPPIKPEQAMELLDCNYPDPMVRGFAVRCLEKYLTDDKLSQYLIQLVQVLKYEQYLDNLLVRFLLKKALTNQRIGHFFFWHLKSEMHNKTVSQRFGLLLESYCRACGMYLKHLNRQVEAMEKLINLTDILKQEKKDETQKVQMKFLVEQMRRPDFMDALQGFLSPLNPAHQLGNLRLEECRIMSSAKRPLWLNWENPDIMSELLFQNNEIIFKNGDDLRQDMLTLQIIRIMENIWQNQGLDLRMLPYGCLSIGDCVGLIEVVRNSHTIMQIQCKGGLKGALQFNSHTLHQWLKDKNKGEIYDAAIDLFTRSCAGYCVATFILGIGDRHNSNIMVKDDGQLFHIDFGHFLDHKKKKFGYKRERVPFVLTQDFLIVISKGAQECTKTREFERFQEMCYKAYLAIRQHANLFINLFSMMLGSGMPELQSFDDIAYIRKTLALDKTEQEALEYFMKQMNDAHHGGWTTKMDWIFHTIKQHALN
`Cn1c(=O)n(C2CCN(C(=O)OCc3ccccc3)CC2)c2c3nc(-c4cnc5ccccc5c4)ccc3ncc21` was tested, and the pIC50 was 7.87.
`CN(C)c1ccc(-c2ccc3ncc4c(c3n2)n([C@H]2CC[C@H](O)CC2)c(=O)n4C)cn1` showed a pIC50 of 8.28.
Work on `C[C@H](CO)n1c(=O)n(C)c2cnc3ccc(-c4cccc5[nH]ccc45)nc3c21` yielded a pIC50 of 7.26.
With `COc1ncc(-c2ccc3ncc4[nH]c(=O)n(-c5ccc(C(C)(C)C#N)cc5)c4c3n2)cc1F` the pIC50 was 6.71.
`COCC(=O)N1CCC(n2c(=O)n(C)c3cnc4ccc(-c5cnc6[nH]ncc6c5)nc4c32)CC1` showed a pIC50 of 7.82.
With `CNC(=O)N1CCC(n2c(=O)n(C)c3cnc4ccc(-c5ccc(N(C)C)nc5)nc4c32)CC1` the pIC50 was 7.61.
`COc1ccc(-c2ccc3ncc4[nH]c(=O)n(-c5ccc(C(C)(C)C#N)cc5)c4c3n2)cn1` gave a pIC50 of 7.94.
For `C[C@@H](CO)n1c(=O)n(C)c2cnc3ccc(-c4cnn(C)c4)nc3c21`, the pIC50 was 5.30.
Work on `COc1ncc(-c2ccc3ncc4c(c3n2)n([C@H]2CC[C@H](C(N)=O)CC2)c(=O)n4C)cn1` yielded a pIC50 of 7.34.
In the case of `Cn1c(=O)n([C@H]2CC[C@H](O)CC2)c2c3nc(-c4cnc5ccccc5c4)ccc3ncc21`, the pIC50 was 8.28.
Work on `COC(=O)N1CCC(n2c(=O)n(C)c3cnc4ccc(-c5cnc6ccccc6c5)nc4c32)CC1` yielded a pIC50 of 8.09.
Compound `Cc1ccc(-c2ccc3ncc4c(c3n2)n(C2CCN(C(N)=O)CC2)c(=O)n4C)cn1` has a pIC50 of 6.95.
`O=c1[nH]c2cnc3ccc(-c4cnc5ccccc5c4)nc3c2n1C1CCNCC1` gave a pIC50 of 6.45.
In the case of `C[C@H](CO)n1c(=O)n(C)c2cnc3ccc(-c4cnc5[nH]ncc5c4)nc3c21`, the pIC50 was 7.08.
`Cn1c(=O)n(C2CCOCC2)c2c3nc(-c4cn[nH]c4)ccc3ncc21` was tested, and the pIC50 was 7.74.
`Cn1c(=O)n(C2CCN(C(=O)C(C)(C)N)CC2)c2c3nc(-c4cnc5ccccc5c4)ccc3ncc21` showed a pIC50 of 7.93.
With `COc1ccc(-c2ccc3ncc4[nH]c(=O)n([C@H]5CC[C@H](OCCO)CC5)c4c3n2)cn1` the pIC50 was 7.42.
Compound `CC(=O)N1CCC(n2c(=O)n(C)c3cnc4ccc(-c5cccc6ncccc56)nc4c32)CC1` has a pIC50 of 6.71.
`Cn1c(=O)n([C@H]2CC[C@H](O)CC2)c2c3nc(-c4ccc5[nH]ncc5c4)ccc3ncc21` showed a pIC50 of 7.69.
In the case of `Cc1ccc(-c2ccc3ncc4c(c3n2)n(C2CCN(CC(N)=O)CC2)c(=O)n4C)cn1`, the pIC50 was 7.73.
`Cn1c(=O)n(C2CCNCC2)c2c3nc(-c4cnn(CCO)c4)ccc3ncc21` gave a pIC50 of 5.49.
`Cn1cc(-c2ccc3ncc4c(c3n2)n(C2CCN(CC(F)(F)F)CC2)c(=O)n4C)cn1` gave a pIC50 of 6.71.
Work on `COc1cccc(-c2ccc3ncc4c(c3n2)n(C2CCN(C(=O)CO)CC2)c(=O)n4C)c1` yielded a pIC50 of 7.52.
`Cn1c(=O)n(C2CCN(C(=O)C(C)(C)O)CC2)c2c3nc(-c4cnc5[nH]ncc5c4)ccc3ncc21` gave a pIC50 of 8.00.
For `C[C@H](CO)n1c(=O)n(C)c2cnc3ccc(-c4cnc(N)nc4)nc3c21`, the pIC50 was 6.48.
Work on `Cc1ccc(-c2ccc3ncc4c(c3n2)n([C@H](C)CO)c(=O)n4C)cn1` yielded a pIC50 of 6.57.
`COc1ncc(-c2ccc3ncc4[nH]c(=O)n(-c5ccc(C(C)(C)C#N)cc5)c4c3n2)cn1` showed a pIC50 of 7.36.
In the case of `Cc1ccc(-c2ccc3ncc4c(c3n2)n(C2CCN(C(=O)CN)CC2)c(=O)n4C)cn1`, the pIC50 was 7.16.
Work on `CN1CCC(n2c(=O)n(C)c3cnc4ccc(-c5cnc6ccccc6c5)nc4c32)CC1` yielded a pIC50 of 7.93.
Work on `CNC(=O)Nc1ccc(-c2ccc3ncc4c(c3n2)n(C2CCN(C(=O)[C@H](C)O)CC2)c(=O)n4C)cc1` yielded a pIC50 of 7.09.
In the case of `CC(C)OC(=O)N1CCC(n2c(=O)n(C)c3cnc4ccc(-c5cnc6ccccc6c5)nc4c32)CC1`, the pIC50 was 7.71.
With `Cc1ccc(-c2ccc3ncc4c(c3n2)n(C2CCNCC2)c(=O)n4C)cn1` the pIC50 was 7.00.
With `Cn1c(=O)n(C2CCOCC2)c2c3nc(-c4ccn[nH]4)ccc3ncc21` the pIC50 was 6.51.
Work on `CN(C)c1ccc(-c2ccc3ncc4c(c3n2)n(C2CCN(C(=O)C(C)(C)O)CC2)c(=O)n4C)cn1` yielded a pIC50 of 8.17.
Work on `CN(C)c1ccc(-c2ccc3ncc4c(c3n2)n(C2CCN(CC(F)(F)F)CC2)c(=O)n4C)cn1` yielded a pIC50 of 7.74.
For `CC(=O)N1CCC(n2c(=O)n(C)c3cnc4ccc(-c5ccc(N)nc5)nc4c32)CC1`, the pIC50 was 8.04.
In the case of `C[C@@H](O)C(=O)N1CCC(n2c(=O)n(C)c3cnc4ccc(-c5cnc6[nH]ncc6c5)nc4c32)CC1`, the pIC50 was 7.53.
Work on `Cc1ccc(-c2ccc3ncc4c(c3n2)n(C2CCN(C(=O)CN(C)C)CC2)c(=O)n4C)cn1` yielded a pIC50 of 7.37.
In the case of `CC(=O)N1CCC(n2c(=O)n(C)c3cnc4ccc(-c5ccc(S(C)(=O)=O)cc5)nc4c32)CC1`, the pIC50 was 5.59.
Compound `COCC(=O)N1CCC(n2c(=O)n(C)c3cnc4ccc(-c5cnc(OC)nc5)nc4c32)CC1` has a pIC50 of 7.91.
With `Cn1c(=O)n([C@H]2CC[C@H](N)CC2)c2c3nc(-c4cnc5ccccc5c4)ccc3ncc21` the pIC50 was 7.33.
